Where a name gives a salt, the structure may show the parent alone.
Assays:
[1] = system: BaF3-PIM1 cells; experiment: In vitro cell proliferation assay (CellTiter-Glo), BaF3-PIM1; assay type: cell-based; settings: 72 hours
Method: (§1) In Vitro Cell Proliferation Assay
(§2) BaF3-PIM1 and MV-4-11 cells were seeded at 125 cells/well and 1250 cells/well respectively in a 384-well white plates in complete medium and treated with compounds dissolved in 0.1% DMSO, 24 h after seeding.
(§3) The cells were incubated at 37° C. and 5% CO2 and after 72 hours the plates were processed using CellTiter-Glo assay (Promega) following the manufacturer's instruction.
(§4) CellTiter-Glo was a homogenous method based on the quantification of the ATP present, an indicator of metabolitically active cells. ATP was quantified using a system based on luciferase and D-luciferin resulting into light generation. The luminescent signal was proportional to the number of cells present in culture.
(§5) Briefly 25 μl/well reagent solution were added to each wells and after 5 minutes shacking microplates were red by Envision (PerkinElmer) luminometer. The luminescent signal was proportional to the number of cells present in culture.
(§6) Inhibitory activity was evaluated comparing treated versus control data using Assay Explorer (MDL) program. IC50 was calculated using sigmoidal interpolation curve.

[2] = system: MV-4-11 cells; experiment: In vitro cell proliferation assay (CellTiter-Glo), MV-4-11; assay type: cell-based; settings: Homo sapiens, MV4-11, 72 hours
Method: as §1
MV-4-11 (biphenotypic B myelomonocytic leukemia) cell line was obtained from ATCC.
Media for MV-4-11 cell line contained RPMI 1640 or EMEM plus 2 mM Glutamine and 10% Fetal bovine serum.
as §2, §3, §4, §5, §6

[3] = molecular target: human PIM2 (Homo sapiens (Human), UniProt Q9P1W9); experiment: PIM2 kinase inhibition assay: Dowex technique; assay type: biochemical; settings: ATP 4 μM, Aktide 5 μM, enzyme 1.5 nM; read-out: PIM-2 IC50
Sequence of human PIM2 (Q9P1W9 whole entry): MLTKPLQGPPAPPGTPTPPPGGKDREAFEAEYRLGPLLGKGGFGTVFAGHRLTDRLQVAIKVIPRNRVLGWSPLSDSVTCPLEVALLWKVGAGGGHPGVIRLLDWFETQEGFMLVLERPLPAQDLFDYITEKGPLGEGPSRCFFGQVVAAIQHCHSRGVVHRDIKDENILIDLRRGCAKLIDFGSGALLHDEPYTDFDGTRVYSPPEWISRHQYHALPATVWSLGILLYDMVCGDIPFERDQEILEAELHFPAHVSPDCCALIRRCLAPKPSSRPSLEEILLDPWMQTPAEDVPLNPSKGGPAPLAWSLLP
Method: Method for PIM2 Kinase Inhibition Assay: Dowex Technique
The buffer for PIM2 assay was composed of HEPES 50 mM, at pH 7.5, with 1 mM MgCl2, 1 mM DTT, 3 μM Na3VO4, and 0.2 mg/mL BSA.
Full-length human PIM2 was expressed and purified as described in Fedorov O, et al., PNAS 2007 104, 51, 20523-28. ii. Assay Conditions (Final Concentrations)
Enzyme concentration=1.5 nM; ATP=4 μM; ^33P-γ-ATP=1 nM
Aktide substrate (Chemical Abstract Service Registry Number 324029-01-8)=5 μM iii. Robotized Dowex Assay
See above: same procedure as described for PIM1.

[4] = molecular target: human PIM1 (Homo sapiens (Human), UniProt P11309); experiment: Biochemical assay for inhibitors of PIM1 kinase activity (trans-phosphorylation, Dowex technique); settings: ATP 200 μM, Aktide 25 μM, enzyme 1 nM; read-out: PIM-1 IC50
Sequence of human PIM1 (P11309 whole entry): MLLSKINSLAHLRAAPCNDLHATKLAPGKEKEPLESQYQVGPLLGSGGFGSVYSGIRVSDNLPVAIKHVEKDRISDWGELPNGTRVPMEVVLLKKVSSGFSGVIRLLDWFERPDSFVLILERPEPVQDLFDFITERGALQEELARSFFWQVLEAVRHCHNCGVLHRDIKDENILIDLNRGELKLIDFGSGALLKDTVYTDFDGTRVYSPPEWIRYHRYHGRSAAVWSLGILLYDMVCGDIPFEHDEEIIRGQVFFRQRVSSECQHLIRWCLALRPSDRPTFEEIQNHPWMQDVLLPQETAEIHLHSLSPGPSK
Method: Biochemical Assay for Inhibitors of PIM1 Kinase Activity
The inhibitory activity of putative kinase inhibitors and the potency of selected compounds were determined using a trans-phosphorylation assay.
Specific peptide or protein substrates were trans-phosphorylated by their specific ser-thr or tyr kinase in the presence of ATP traced with ^33P-γ-ATP, and in the presence of their own optimal buffer and cofactors.
At the end of the phosphorylation reaction, more than 98% unlabeled ATP and radioactive ATP were captured by an excess of the ion exchange dowex resin; the resin then settled down to the bottom of the reaction plate by gravity. Supernatant was subsequently withdrawn and transferred into a counting plate, then evaluated by β-counting.
Reagents/Assay Conditions i. Dowex Resin Preparation
500 g of wet resin (SIGMA, custom prepared resin DOWEX 1×8 200-400 mesh, 2.5 Kg) were weighed out and diluted to 2 L in 150 mM sodium formate, pH 3.00.
The resin was allowed to settle down (some hours) and then the supernatant was discarded.
After three washes as above over a couple of days, the resin was allowed to settle and two volumes (wrt the resin volume) of 150 mM sodium formate buffer were added.
The pH was then measured and should have been around 3.00.
The washed resin was stable for more than one week; the stock resin was kept at 4° C. before use.
The buffer for PIM1 assay was composed of HEPES 50 mM, at pH 7.5, with 10 mM MgCl2, 1 mM DTT, 3 μM NaVO3, and 0.2 mg/mL BSA.
Full-length human PIM1 was expressed and purified as described in Bullock A N, et al., J. Biol. Chem. 2005, 280, 41675-82.
1.7 μM PIM1 was incubated 1 h at 28° C. in the presence of 125 μM ATP.
ATP concentration: 200 μM; ^33P-γ-ATP: 6 nM; Enzyme concentration: 1 nM Substrate concentration Aktide (Chemical Abstract Service Registry Number 324029-01-8): 25 μM iv. Robotized Dowex Assay
The test mix consisted of:
1) 3× Enzyme mix (done in Kinase Buffer 3×), 5 μL/well
2) 3× substrate and ATP mix (done in ddH2O), together with ^33P-γ-ATP, 5 μL/well 3) 3× test compounds (diluted into ddH2O—3% DMSO)—5 μL/well See below for compound dilution and assay scheme […]
An automated station (Biomek FX, Beckman) was used for serial dilutions, producing 1:3 dilutions in 100% DMSO, from line A1 to A10, for all the compounds in the column.
Data were analyzed by an internally customized version of the “Assay Explorer” SW package, which provided sigmoidal fitting of the ten-dilution curves for IC50 determination in secondary assay/hit confirmation routines.

Structure (SMILES): NCCC1CNC(=O)c2cc(-c3cccc(OC(F)(F)F)c3)c(-c3ccccc3)n21 (centres unmarked) [Compound 28, 4-(2-aminoethyl)-6-phenyl-7-[3-(trifluoromethoxy)phenyl]-3,4-dihydropyrrolo[1,2-a]pyrazin-1(2H)-one hydrochloride]
- IC50 [1]: 0.275 µM
- IC50 [2]: 1.74 µM
- IC50 [3]: 0.055 µM
- IC50 [4]: 0.007 µM

Structure (SMILES): NCCC1CNC(=O)c2cc(-c3cccc(OC(F)(F)F)c3)c(-c3ccsc3)n21 (centres unmarked) [Compound 29, 4-(2-aminoethyl)-6-(thiophen-3-yl)-7-[3-(trifluoromethoxy)phenyl]-3,4-dihydropyrrolo[1,2-a]pyrazin-1(2H)-one hydrochloride]
- IC50 [1]: 0.315 µM
- IC50 [2]: 2.62 µM
- IC50 [3]: 0.143 µM
- IC50 [4]: 0.019 µM

Structure (SMILES): Cc1cccc(-c2c(-c3cccc(OC(F)(F)F)c3)cc3n2C(CCN)CNC3=O)c1 (centres unmarked) [Compound 31, 4-(2-aminoethyl)-6-(3-methylphenyl)-7-[3-(trifluoromethoxy)phenyl]-3,4-dihydropyrrolo[1,2-a]pyrazin-1(2H)-one hydrochloride]
- IC50 [1]: 0.326 µM
- IC50 [2]: 2.59 µM
- IC50 [3]: 0.051 µM
- IC50 [4]: 0.023 µM

Structure (SMILES): NCCC1CNC(=O)c2cc(-c3cccc(C(F)(F)F)c3)c(-c3ccsc3)n21 (centres unmarked) [Compound 40, 4-(2-aminoethyl)-6-(thiophen-3-yl)-7-[3-(trifluoromethyl)phenyl]-3,4-dihydropyrrolo[1,2-a]pyrazin-1(2H)-one hydrochloride]
- IC50 [1]: 0.34 µM
- IC50 [2]: 5.04 µM
- IC50 [3]: 0.155 µM
- IC50 [4]: 0.043 µM

Structure (SMILES): Cc1cccc(-c2c(-c3ccnc(Cl)c3)cc3n2C(CCN)CNC3=O)c1 (centres unmarked) [Compound 45, 4-(2-aminoethyl)-7-(2-chloropyridin-4-yl)-6-(3-methylphenyl)-3,4-dihydropyrrolo[1,2-a]pyrazin-1(2H)-one hydrochloride]
- IC50 [1]: 3.96 µM
- IC50 [2]: 3.17 µM
- IC50 [3]: 0.102 µM
- IC50 [4]: 0.041 µM

Structure (SMILES): NCCC1CNC(=O)c2cc(-c3cc(Cl)ccc3F)c(-c3ccsc3)n21 (centres unmarked) [Compound 55, 4-(2-aminoethyl)-7-(5-chloro-2-fluorophenyl)-6-(thiophen-3-yl)-3,4-dihydropyrrolo[1,2-a]pyrazin-1(2H)-one hydrochloride]
- IC50 [1]: 0.14 µM
- IC50 [2]: 3.6 µM
- IC50 [3]: 0.077 µM
- IC50 [4]: 0.017 µM

Structure (SMILES): NCCC1CNC(=O)c2cc(-c3cc(Cl)ccc3F)c(-c3ccccc3)n21 (centres unmarked) [Compound 57, 4-(2-aminoethyl)-7-(5-chloro-2-fluorophenyl)-6-phenyl-3,4-dihydropyrrolo[1,2-a]pyrazin-1(2H)-one hydrochloride]
- IC50 [1]: 0.239 µM
- IC50 [2]: 2.6 µM
- IC50 [3]: 0.032 µM
- IC50 [4]: 0.016 µM

Structure (SMILES): Cc1cccc(-c2c(-c3cc(Cl)ccc3F)cc3n2C(CCN)CNC3=O)c1 (centres unmarked) [Compound 59, 4-(2-aminoethyl)-7-(5-chloro-2-fluorophenyl)-6-(3-methylphenyl)-3,4-dihydropyrrolo[1,2-a]pyrazin-1(2H)-one hydrochloride]
- IC50 [1]: 0.323 µM
- IC50 [2]: 4.62 µM
- IC50 [3]: 0.114 µM
- IC50 [4]: 0.04 µM

Structure (SMILES): CN(C)Cc1ccc(-c2c(-c3cccc(OC(F)(F)F)c3)cc3n2C(CCCl)CNC3=O)cc1 (centres unmarked) [Compound 70, 4-(2-chloroethyl)-6-{4-[(dimethylamino)methyl]phenyl}-7-[3-(trifluoromethoxy)phenyl]-3,4-dihydropyrrolo[1,2-a]pyrazin-1(2H)-one trifluoroacetate]
- IC50 [1]: 0.418 µM
- IC50 [2]: 1.5 µM
- IC50 [3]: 0.113 µM
- IC50 [4]: 0.016 µM

Structure (SMILES): CN1CCN(Cc2ccc(-c3c(-c4cccc(OC(F)(F)F)c4)cc4n3C(CCCl)CNC4=O)cc2)CC1 (centres unmarked) [Compound 71, 4-(2-chloroethyl)-6-{4-[(4-methylpiperazin-1-yl)methyl]phenyl}-7-[3-(trifluoromethoxy)phenyl]-3,4-dihydropyrrolo[1,2-a]pyrazin-1(2H)-one trifluoroacetate]
- IC50 [1]: 0.273 µM
- IC50 [2]: 3.14 µM
- IC50 [3]: 0.044 µM
- IC50 [4]: 0.014 µM

Structure (SMILES): CN1CCN(Cc2ccc(-c3c(-c4cccc(OC(F)(F)F)c4)cc4n3C(CCO)CNC4=O)cc2)CC1 (centres unmarked) [Compound 82, 4-(2-hydroxyethyl)-6-{4-[(4-methylpiperazin-1-yl)methyl]phenyl}-7-[3-(trifluoromethoxy)phenyl]-3,4-dihydropyrrolo[1,2-a]pyrazin-1(2H)-one trifluoroacetate]
- IC50 [1]: 0.486 µM
- IC50 [2]: 5.96 µM
- IC50 [3]: 0.035 µM
- IC50 [4]: 0.001 µM

Structure (SMILES): COc1ccc(-c2c(-c3cccc(OC(F)(F)F)c3)cc3n2[C@@H](CCN)CNC3=O)cc1F [Compound 113, (4S)-4-(2-aminoethyl)-6-(3-fluoro-4-methoxyphenyl)-7-[3-(trifluoromethoxy)phenyl]-3,4-dihydropyrrolo[1,2-a]pyrazin-1(2H)-one hydrochloride]
- IC50 [1]: 0.053 µM
- IC50 [3]: 0.036 µM
- IC50 [4]: 0.023 µM

Structure (SMILES): NCC[C@H]1CNC(=O)c2cc(-c3cccc(OC(F)(F)F)c3)c(-c3ccc(C4(N)CC4)cc3)n21 [Compound 130, (4S)-6-[4-(1-aminocyclopropyl)phenyl]-4-(2-aminoethyl)-7-[3-(trifluoromethoxy)phenyl]-3,4-dihydropyrrolo[1,2-a]pyrazin-1(2H)-one hydrochloride]
- IC50 [1]: 0.15 µM
- IC50 [3]: 0.003 µM
- IC50 [4]: 0.001 µM

Structure (SMILES): CN1CCN(Cc2ccc(-c3c(-c4cccc(OC(F)(F)F)c4)cc4n3[C@@H](CCCN)CNC4=O)cc2)CC1 [Compound 135, (4S)-4-(3-aminopropyl)-6-{4-[(4-methylpiperazin-1-yl)methyl]phenyl}-7-[3-(trifluoromethoxy)phenyl]-3,4-dihydropyrrolo[1,2-a]pyrazin-1(2H)-one dihydrochloride]
- IC50 [1]: 6.45 µM
- IC50 [3]: 0.013 µM
- IC50 [4]: 0.001 µM

Structure (SMILES): CC(C)[C@H]1CNC(=O)c2cc(-c3cccc(OC(F)(F)F)c3)c(-c3ccc(CN)cc3)n21 [Compound 138, (4S)-6-[4-(aminomethyl)phenyl]-4-(propan-2-yl)-7-[3-(trifluoromethoxy)phenyl]-3,4-dihydropyrrolo[1,2-a]pyrazin-1(2H)-one]
- IC50 [1]: 0.276 µM
- IC50 [3]: 0.173 µM
- IC50 [4]: 0.012 µM

Structure (SMILES): Cc1cccc(-c2c(-c3cccc(OC(F)(F)F)c3)cc3n2[C@@H](CCNC(=N)N)CNC3=O)c1 [Compound 148, 1-(2-{(4S)-6-(3-methylphenyl)-1-oxo-7-[3-(trifluoromethoxy)phenyl]-1,2,3,4-tetrahydropyrrolo[1,2-a]pyrazin-4-yl}ethyl)guanidine hydrochloride]
- IC50 [1]: 0.11 µM
- IC50 [3]: 0.012 µM
- IC50 [4]: 0.008 µM

Structure (SMILES): CS(=O)(=O)c1ccc(-c2c(-c3cccc(OC(F)(F)F)c3)cc3n2[C@@H](CCNC(=N)N)CNC3=O)cc1 [Compound 149, 1-(2-{(4S)-6-[4-(methylsulfonyl)phenyl]-1-oxo-7-[3-(trifluoromethoxy)phenyl]-1,2,3,4-tetrahydropyrrolo[1,2-a]pyrazin-4-yl}ethyl)guanidine hydrochloride]
- IC50 [1]: 1.77 µM
- IC50 [3]: 0.019 µM
- IC50 [4]: 0.008 µM

— patent publication US9181258B2, “Substituted 3,4-dihydropyrrolo[1,2-a]pyrazin-1(2H)-ones as protein kinase inhibitors” (NERVIANO MEDICAL SCIENCES S.R.L., priority 2011, dated 2015)
